The values that follow come from patent US20200362380A1, “Novel Biomolecule and Methods of Manufacturing Thereof” (priority 2018, published 2020).

This experiment concerns plants. Nature of the experiment: auxin effect on plants (media based agriculture). Type of experiment: in vivo. The note with it: media based agriculture with and without soil; statement in words only. An excerpt: The resulting monomer can be leached through the media column and recuperated in pure form after filtering out any bacteria using appropriate filtration such as diatomaceous earth or filter paper. This can also be carried out in media based agriculture both with and without soil.

In the case of 3-4 deoxy-glucosamine [monomer], the “auxin effect on plants” value is on record as “pronounced auxin effect”.
